Reference: patent publication US20250049970A1, “DLL3 TARGETING PEPTIDES AND CONSTRUCTS THEREOF” (MARIANA ONCOLOGY INC., priority 2023, published 2025)
Where a SMILES comes first, the peptide text is derived from it. Bridges are numbered along the chain shown (N, C = ends). [ ]: non-standard residue; d: D form. The star is where a group is joined. DOTA = O=C(O)CN1CCN(CC(=O)O)CCN(CC(=O)*)CCN(CC(=O)O)CC1; 2Nal = N[C@@H](Cc1ccc2ccccc2c1)C(=O)O; NMeNle = CCCC[C@H](NC)C(=O)O

Legend:
CT26.DLL3 cells [1] = experiment: Cell binding (total uptake) of [177Lu]Lu-labeled peptide, CT26.DLL3 cells; type: cell-based; settings: 1 h, 37° C.
How it was run: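 [177Lu]Lu-labelled peptide was prepared at pH ~5 and 80 °C, with purity checked by RP-HPLC, then formulated in 1% PBSA. CT26.DLL3 cells (5-25 million per condition) were incubated with 0.8 μCi for 1 h at 37 °C. After cold PBS/BSA washes, bound and unbound fractions were gamma-counted and uptake was reported as a percentage band.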

CT26.DLL3 cells [2] = experiment: Internalization of [177Lu]Lu-labeled peptide, CT26.DLL3 cells; type: cell-based; settings: 1 h, 37° C.
How it was run: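 [177Lu]Lu-chelator-peptides labelled at pH ~5, 80 °C, checked by RP-HPLC, formulated in 1% PBSA. Detached cells (5-25 million/condition) counted as bound fraction, stripped twice with 50 mM glycine pH 2.5 for 3 min, lysed in 0.3 M NaOH and gamma-counted as internalized fraction; values binned as ≤25, 25-50, >50 %.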

SHP-77 cells [3] = experiment: Cell binding (total uptake) of [177Lu]Lu-labeled peptide, SHP-77 cells; type: cell-based; settings: 1 h, 37° C.
Procedure: (§1) [^177Lu]LuCl3 was received from venders in HCl solution. For every mCi of [^177Lu]LuCl3 added to the reaction vial (1.5 mL Eppendorf vial), ammonium acetate buffer (0.2 M, pH 4.9, 100 μL, containing 1% w/v ascorbic acid and 6% v/v ethanol) and peptide conjugate (1 nmol; also referred to herein as “chelator-peptides”) was added. The pH of the solution was determined to be approximately 5 by using pH strips. The reaction vial was incubated at 80° C., 700 RPM for 17-20 minutes. A sample from the reaction was analyzed by RP-HPLC using an Agilent Infinity II 1260 HPLC to determine reaction completion and radiochemical purity of [^177Lu]Lu-chelator-peptides. HPLC conditions: Waters XBridge BEH C18 Column, 130A, 3.5 μm, 4.6 mm×250 mm; mobile phase: Solvent A=water (with 0.1% formic acid), solvent B=acetonitrile (with 0.1% formic acid). Gradients: 25-45% B in 10 minutes, 45-65% B in 12 minutes, 65-90% in 6 minutes at a flow rate of 0.5 mL/minutes Required amounts of the product was formulated in 1% PBSA for cell studies.
(§2) The study was conducted using SHP-77, CT26.WT, CT26.DLL3, and HEK293.DLL3 cells (Table 9)
(§3) Adherent cell studies: The cells were cultured in appropriate culture media (20 mL) in tissue culture treated T150 flasks at 37° C. and 5% C02. Adherent cells were detached (60-70% confluent) using 5 mL Versene at 37° C. for 3 minutes. After confirming the viability using countess and count of detached cells using Trypan blue, the cells were centrifuged at 4° C. for 5 minutes (1,000 rpm). The cell pellet obtained was washed once with PBS and resuspended in 1% PBSA to obtain the desired cell concentration (5-25 million cells/mL).
(§4) Suspension cell studies: The cells were cultured in appropriate culture media (20 mL) in tissue culture treated T150 flasks at 37° C. and 5% CO2. After confirming the viability and count of detached cells using Trypan blue, the cells were centrifuged at 4° C. for 5 minutes (1,000 rpm). The cell pellet obtained was washed once with PBS and resuspended in 1% PBSA to obtain the desired cell concentration (5-25 million cells/mL).
(§5) Cell numbers used for the assay were in the range of 5 million cells/condition-25 million cells/condition.
Total uptake: Cells were incubated with 300 μL (0.8 μCi) of the incubation buffer (containing radiolabeled peptide [^177Lu]Lu-test peptide) for 1 hour at 37° C. (Table 10). Post incubation, the cells were pelleted and washed 2 times using cold PBS+1% BSA. The supernatant and washes were combined and counted together as “unbound fraction” in a gamma counter. The cells were then resuspended in 300 μL of 1% PBS+1% BSA and counted in the gamma counter as “bound fraction”.
(§6) In these Tables, “A” represents % s ≤25; “B” represents 25 <% ≤50; “C” represents % >50.

SHP-77 cells [4] = experiment: Internalization of [177Lu]Lu-labeled peptide, SHP-77 cells; type: cell-based; settings: 1 h, 37° C.
Procedure: as §1, §2, §3, §4, §5
Internalization: The resuspended cells in 300 μL of 1% PBSA and counted in the gamma counter as “bound fraction” were collected in 1.5 mL Eppendorf tube and pelleted. The pelleted cells were incubated with 300 μL of 50 mM Glycine pH=2.5 for 3 minutes and then pelleted discarding the supernatant. This process was repeated one more time. The pelleted cells were washed with 300 μL of cold 1% PBSA and then resuspended in 300 μl 0.3M NaOH. This was counted in the gamma counter as “internalized fraction”.
as §6

[5] = tested on: nude mice bearing SHP-77 tumors; experiment: Ex vivo biodistribution of radiolabeled peptides (% IA/g) in nude mice bearing SHP-77 tumors; settings: [177Lu]Lu labelling, 24 hours post-injection, intravenous
How it was run: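 [177Lu]Lu-peptides were given as an IV tail-vein bolus once tumors reached 200-400 mm^3. Injected activity was set per mouse from syringe dose-calibrator readings. At set time points, tissues were weighed and gamma-counted, and counts were decay-corrected to injection and expressed as % IA/g.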

DLL3 = target: T1, DLL3 (Homo sapiens, UniProt Q9NYJ7); experiment: SPR KD, biotinylated human DLL3 on streptavidin chip (Table 8); parameters: biotin (biotinylated); settings: biotinylated human DLL3 on streptavidin sensor chip, 25° C., 1:1 binding model; read-out: SPR KD
T1 sequence (Q9NYJ7 27-618): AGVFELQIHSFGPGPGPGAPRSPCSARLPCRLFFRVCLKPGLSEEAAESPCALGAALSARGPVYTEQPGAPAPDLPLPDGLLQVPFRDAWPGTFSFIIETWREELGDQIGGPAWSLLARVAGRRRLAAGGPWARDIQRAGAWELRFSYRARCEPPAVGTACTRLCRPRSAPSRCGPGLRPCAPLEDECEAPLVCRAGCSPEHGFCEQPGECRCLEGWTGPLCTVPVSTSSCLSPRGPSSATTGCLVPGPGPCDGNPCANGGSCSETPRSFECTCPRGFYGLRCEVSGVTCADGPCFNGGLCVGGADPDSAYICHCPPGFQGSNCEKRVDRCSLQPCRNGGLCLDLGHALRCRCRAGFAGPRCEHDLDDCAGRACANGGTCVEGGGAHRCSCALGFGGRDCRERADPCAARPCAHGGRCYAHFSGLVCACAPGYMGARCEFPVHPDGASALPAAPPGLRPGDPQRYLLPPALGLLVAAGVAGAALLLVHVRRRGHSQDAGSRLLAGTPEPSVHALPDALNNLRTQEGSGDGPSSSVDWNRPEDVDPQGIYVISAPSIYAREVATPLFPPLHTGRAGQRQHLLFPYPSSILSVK
Text: Biotinylated target ligand human DLL3 was immobilized on a streptavidin sensor chip. A reference surface was set up for nonspecific binding and refractive index changes. […] Sensorgram curves were fitted with 1:1 binding model, and affinity and kinetic parameters were obtained using Biacore Insight evaluation 4.0. software.

SMILES	% Binding (CT26.DLL3 cells [1])	% Internalization (out of bound fraction) (CT26.DLL3 cells [2])	% Binding (SHP-77 cells [3])	% Internalization (out of bound fraction) (SHP-77 cells [4])	kidney uptake (% IA/g) [5]	tumor uptake (% IA/g) [5]	Kd (DLL3)
CC[C@H](C)[C@H](NC(=O)[C@@H](NC(=O)[C@H](Cc1c[nH]c2ccccc12)NC(C)=O)[C@@H](C)O)C(=O)N[C@H]1CSSC[C@@H](C(=O)N[C@@H](Cc2c[nH]c3ccccc23)C(=O)N2CCC[C@H]2C(N)=O)NC(=O)[C@H](CC(=O)O)NC(=O)[C@H](Cc2cnc[nH]2)NC(=O)[C@H](Cc2ccc3ccccc3c2)NC(=O)[C@H](CC(N)=O)NC(=O)[C@H](CCCCNC(=O)CN2CCN(CC(=O)O)CCN(CC(=O)O)CCN(CC(=O)O)CC2)NC1=O [compound 249, Ac-W-T-I-C(3)-Lys(DOTA)-N-(2Nal)-H-D-C(3)-W-P-CONH2] (Ac-WTICK(DOTA)N[2Nal]HDCWP-NH2; disulfide 4-10)	A (% s ≤25)	B (25 <% ≤50)	A (% s ≤25)	B (25 <% ≤50)	C (“C” represents 0 < % IA/g ≤ 10 in)	A (“A” represents 0 < % IA/g ≤ 5 in tumor)	< 1 nM
CCCC[C@@H](C(=O)N[C@H]1CSSC[C@@H](C(=O)N[C@@H](Cc2c[nH]c3ccccc23)C(=O)N2CCC[C@H]2C(N)=O)NC(=O)[C@H](CC(=O)O)NC(=O)[C@H](CCCCNC(=O)CN2CCN(CC(=O)O)CCN(CC(=O)O)CCN(CC(=O)O)CC2)NC(=O)[C@H](Cc2ccc3ccccc3c2)NC(=O)[C@H](CC(N)=O)NC(=O)[C@H](CC(N)=O)NC1=O)N(C)C(=O)[C@@H](NC(=O)[C@H](Cc1c[nH]c2ccccc12)NC(C)=O)[C@@H](C)O [compound 320, Ac-W-T-(NMe-Nle)-C(3)-N-N-(2Nal)-Lys(DOTA)-D-C(3)-W-P-CONH2] (Ac-WT[NMeNle]CNN[2Nal]K(DOTA)DCWP-NH2; disulfide 4-10)	A (% s ≤25)	B (25 <% ≤50)	A (% s ≤25)	B (25 <% ≤50)	D (“D” represents % IA/g > 10 in kidney)	A (“A” represents 0 < % IA/g ≤ 5 in tumor)	< 1 nM
